Structures are written as SMILES. pEC50: −log10 of the molar value.

This assay relates to genotype A, "Long" strain RSV. The assay is described as follows: RSV-A assay (CPE, ATPlite readout in Hep-2 cells). In kind it is cell-based. The settings on record: human respiratory syncytial virus, HEp-2, Hep-2 cells, genotype A "Long" strain RSV, MOI 0.1; read-out: Human RSV-A (“Long” strain) EC50. The source says: Hep-2 cells, (originally derived from tumors grown in irradiated-cortisonised weanling rats that had been injected with epidermoid carcinoma tissue from a person's larynx, but later found to be indistinguishable from HeLa cells by PCR DNA analysis), were used for the culturing of genotype A, “Long” strain RSV. Flasks were inoculated with RSV and viral stocks were collected once cytopathic effect (CPE) was greater than […]. Viral stocks in […] sucrose media were snap frozen using liquid nitrogen to increase viral stability. Viral stock titers were quantified by tissue culture infectious dose 50% (TCID50) using 8,000 cells per well and 3-fold viral dilutions across a 96-well plate, cultured for 4 days. Viral stock titers were also quantified by a plaque forming unit assay, as described elsewhere.
Following extensive parameter testing, the final assay is run as follows: Hep-2 cells are seeded into the inner 60 wells of a 96-well plate at 8,000 cells per well in a volume of 50 μL using Growth Media (DMEM without phenol red, 1% L-Glut, 1% Penn/Strep, 1% nonessential amino acids, 10% heat-inactivated FBS). 2-fold serial dilutions of control and test compounds are added to the wells in duplicate in a total volume of 25 μL. Viral stock is then added to the wells at a multiplicity of infection (MOI) of 0.1 in a volume of 25 μL, bringing the total volume of each well to 100 μL. The MOI is calculated using the PFU/mL, or TCID50 if unavailable. Each 96-well plate has a control column of 6 wells with cells and virus but no compound (negative control, max CPE), a column with cells but no compound or virus (positive control, minimum CPE), and a column with no cells or virus or compound (background plate/reagent control). The control wells with cells but no virus are given an additional 25 μL of growth media containing an equal quantity of sucrose as those wells receiving the viral stock in order to keep consistent in media and volume conditions. The outer wells of the plate are filled with 125 μL of moat media (DMEM, 1% Penn/Strep) to act as a thermal and evaporative moat around the test wells. Following a 5-day incubation period, the plates are read using ATPlite (50 uL added per well), which quantifies the amount of ATP (a measure of cell health) present in each well. Assay plates are read using the Envision luminometer. […] EC50 ranges are as follows: A<0.2 μM; B>0.2 μM.
(In general: In ATP-based viability assays light output follows the ATP content of the culture.)
For `COc1cc(C(=O)NC[C@](O)(c2cc3c(c(-c4ccc(F)cc4)n2)OC[C@]3(C)COC(=O)NC2CC2)C(F)(F)F)ccc1OCCO` (single isomer, unassigned) [Example 7], the negative-log EC50 (pEC50) (commonly −log10 of the EC50, conventionally taken in molar units) was under 6.70.
Take `COc1cc(C(=O)NC[C@](O)(c2cc3c(c(-c4ccc(F)cc4)n2)OC[C@]3(C)CNC2CC2)C(F)(F)F)ccc1OCCO` [Example 3]: the pEC50 was over 6.70.
In the case of `COc1cc(C(=O)NCC(O)(c2cc3c(c(-c4ccc(F)cc4)n2)OC[C@]3(C)CN[C@@H](C)C2CC2)C(F)(F)F)ccc1OCCO` (stereo partly drawn) [Example 4] it was over 6.70; in that of `COc1cc(C(=O)NC[C@](O)(c2cc3c(c(-c4ccc(F)cc4)n2)OC[C@]3(C)CNc2ccccc2)C(F)(F)F)ccc1OCCO` [Example 5], under 6.70; in that of `COc1cc(C(=O)NC[C@](O)(c2cc3c(c(-c4ccc(F)cc4)n2)OC[C@]3(C)COC(=O)Nc2ccccc2)C(F)(F)F)ccc1OCCO` [Example 6], under 6.70.
Turning to `COc1cc(C(=O)NC[C@](O)(c2cc3c(c(-c4ccc(F)cc4)n2)OC[C@]3(C)CNC(=O)c2ccccc2)C(F)(F)F)ccc1OCCO` [Example 8], the pEC50 was under 6.70.
Take `COc1cc(C(=O)NC[C@](O)(c2cc3c(c(-c4ccc(F)cc4)n2)OC[C@]3(C)CNC(=O)C2CC2)C(F)(F)F)ccc1OCCO` [Example 9]: the pEC50 is over 6.70.
In the case of `COc1cc(C(=O)NC[C@](O)(c2cc3c(c(-c4ccc(F)cc4)n2)OC[C@]3(C)C(=O)NC2CC2)C(F)(F)F)ccc1OCCO` [Example 10], the pEC50 is over 6.70.
For `COc1cc(C(=O)NC[C@](O)(c2cc3c(c(-c4ccc(F)cc4)n2)OC[C@]3(C)C(N)=O)C(F)(F)F)ccc1OCCO` [Example 11], the negative logarithm of the EC50 (pEC50) was over 6.70.
Under `COc1cc(C(=O)NCC(O)(c2cc3c(c(-c4ccc(F)cc4)n2)OC[C@]3(C)C(=O)NS(=O)(=O)C2CC2)C(F)(F)F)ccc1OCCO` (stereo partly drawn) [Example 12] stands under 6.70; under `COc1cc(C(=O)NCC(O)(c2cc3c(c(-c4ccc(F)cc4)n2)OC[C@]3(C)C(=O)O)C(F)(F)F)ccc1OCCO` (stereo partly drawn) [Example 13], under 6.70.
In the case of `COc1cc(C(=O)NC[C@](O)(c2cc3c(c(-c4ccc(F)cc4)n2)OC[C@]3(C)CNC2CC2)C(F)(F)F)ccc1OC1CC1` [Example 17] it was over 6.70.
As to `COc1cc(C(=O)NC[C@](O)(c2cc3c(c(-c4ccc(F)cc4)n2)OC[C@]3(C)CNCC2CC2)C(F)(F)F)ccc1OC1CC1` [Example 18], the pEC50 is over 6.70.
With `COc1cc(C(=O)NC[C@](O)(c2cc3c(c(-c4ccc(F)cc4)n2)OC[C@]3(C)CN[C@@H](C)C2CC2)C(F)(F)F)ccc1OC1CC1` [Example 19], the pEC50 was over 6.70.
Under `COc1cc(C(=O)NC[C@](O)(c2cc3c(c(-c4ccc(F)cc4)n2)OC[C@]3(C)CNC2CC2)C(F)(F)F)cc2cccnc12` [Example 23] stands over 6.70; under `COc1cc(C(=O)NCC(O)(c2cc3c(c(-c4ccc(F)cc4)n2)OC[C@]3(C)CN[C@@H](C)C2CC2)C(F)(F)F)cc2cccnc12` (stereo partly drawn) [Example 24], over 6.70; under `COc1cc(C(=O)NCC(O)(c2cc3c(c(-c4ccc(F)cc4)n2)OC[C@]3(C)CNCC2CC2)C(F)(F)F)cc2cccnc12` (stereo partly drawn) [Example 25], over 6.70.
For the compound `COc1cc(C(=O)NC[C@](O)(c2cc3c(c(-c4ccc(F)cc4)n2)OC[C@]3(C)C(N)=O)C(F)(F)F)cc2cccnc12` [Example 28], the pEC50 is over 6.70.
On to `C[C@]1(CNCC2CC2)COc2c1cc([C@@](O)(CNC(=O)c1ccc(OC(F)F)c(OCC3CC3)c1)C(F)(F)F)nc2-c1ccc(F)cc1` [Example 33], for which the pEC50 is under 6.70.
As to `C[C@]1(CNCC2CC2)COc2c1cc([C@@](O)(CNC(=O)c1ccc3c(c1)OCCN3)C(F)(F)F)nc2-c1ccc(F)cc1` [Example 38], the pEC50 is under 6.70.
Under `C[C@]1(CNCC2CC2)COc2c1cc([C@@](O)(CNC(=O)c1ccc3[nH]c(=O)[nH]c3c1)C(F)(F)F)nc2-c1ccc(F)cc1` [Example 40] stands under 6.70; under `COc1cc(C(=O)NC[C@](O)(c2cc3c(c(-c4ccc(F)cc4)n2)OC[C@]3(C)CNCC2CC2)C(F)(F)F)ccc1OC(F)F` [Example 41], under 6.70; under `C[C@]1(CNCC2CC2)COc2c1cc([C@@](O)(CNC(=O)c1ccc(OC(F)F)c(O)c1)C(F)(F)F)nc2-c1ccc(F)cc1` [Example 42], under 6.70.
`COc1cc(C(=O)NC[C@](O)(c2cc3c(c(-c4ccc(F)cc4)n2)OC[C@]3(C)C(=O)NC2CCCC2)C(F)(F)F)cc2cccnc12` [Example 47]: the pEC50 was under 6.70.
As for `COc1cc(C(=O)NC[C@](O)(c2cc3c(c(-c4ccc(F)cc4)n2)OC[C@]3(C)C(=O)NCC(F)(F)F)C(F)(F)F)cc2cccnc12` [Example 48], the pEC50 was over 6.70.
With `COc1cc(C(=O)NC[C@](O)(c2cc3c(c(-c4ccc(F)cc4)n2)OC[C@]3(C)C(=O)NCC2CC2)C(F)(F)F)cc2cccnc12` [Example 50], the pEC50 is over 6.70.
As to `COc1cc(C(=O)NC[C@](O)(c2cc3c(c(-c4ccc(F)cc4)n2)OC[C@]3(C)C(=O)NC2(C(F)(F)F)CC2)C(F)(F)F)cc2cccnc12` [Example 51], the pEC50 was under 6.70.
On to `COc1cc(C(=O)NC[C@](O)(c2cc3c(c(-c4ccc(F)cc4)n2)OC[C@]3(C)C(=O)NC23CC(C2)C3)C(F)(F)F)cc2cccnc12` [Example 54], for which the pEC50 is over 6.70.
For the compound `COc1cc(C(=O)NC[C@](O)(c2cc3c(c(-c4ccc(F)cc4)n2)OC[C@]3(C)C(=O)NC23CC(F)(C2)C3)C(F)(F)F)cc2cccnc12` [Example 55], the pEC50 was over 6.70.
Take `COc1cc(C(=O)NC[C@](O)(c2cc3c(c(-c4ccc(F)cc4)n2)OC[C@]3(C)C(=O)NC2(C)COC2)C(F)(F)F)cc2cccnc12` [Example 57]: the pEC50 was over 6.70.
In the case of `COc1cc(C(=O)NC[C@](O)(c2cc3c(c(-c4ccc(F)cc4)n2)OC[C@]3(C)C(=O)NC2(C)CC(F)(F)C2)C(F)(F)F)cc2cccnc12` [Example 58] it was under 6.70.
For `C[C@]1(C(N)=O)COc2c1cc([C@@](O)(CNC(=O)c1cc(OC(F)F)c3ncccc3c1)C(F)(F)F)nc2-c1ccc(F)cc1` [Example 59], the pEC50 was over 6.70.
In the case of `COc1cc(C(=O)NC[C@](O)(c2cc3c(c(-c4ccc(F)cc4)n2)OC[C@]3(C)C(N)=O)C(F)(F)F)cc2c1NC(=O)CC2` [Example 60], the pEC50 was over 6.70.
Take `C[C@]1(C(N)=O)COc2c1cc([C@@](O)(CNC(=O)c1cc(F)c3ncccc3c1)C(F)(F)F)nc2-c1ccc(F)cc1` [Example 63]: the pEC50 was over 6.70.
As to `C[C@]1(C(N)=O)COc2c1cc([C@@](O)(CNC(=O)c1cc(C(F)(F)F)c3ncccc3c1)C(F)(F)F)nc2-c1ccc(F)cc1` [Example 64], the pEC50 is over 6.70.
Regarding `C[C@]1(C(N)=O)COc2c1cc([C@@](O)(CNC(=O)c1ccc3c(c1)OC(F)(F)O3)C(F)(F)F)nc2-c1ccc(F)cc1` [Example 66], the pEC50 is under 6.70.
As for `COc1cc(C(=O)NC[C@](O)(c2cc3c(c(-c4ccc(F)cc4)n2)OC[C@]3(C)C(N)=O)C(F)(F)F)ccc1OC(F)F` [Example 67], the negative logarithm of the EC50 (pEC50) is over 6.70.
On to `COc1cc(C(=O)NC[C@](O)(c2cc3c(c(-c4ccc(F)cc4)n2)OC[C@]3(C)C(N)=O)C(F)(F)F)ccc1OCCF` [Example 68], for which the negative-log EC50 (pEC50) was over 6.70.
Take `C[C@]1(C(N)=O)COc2c1cc([C@@](O)(CNC(=O)c1ccc(OC(F)F)c(OC(F)F)c1)C(F)(F)F)nc2-c1ccc(F)cc1` [Example 70]: the negative logarithm of the EC50 (pEC50) was over 6.70.
As to `C[C@]1(C(N)=O)COc2c1cc([C@@](O)(CNC(=O)c1ccc(OC3CC3)cc1)C(F)(F)F)nc2-c1ccc(F)cc1` [Example 71], the pEC50 is over 6.70.
On to `C[C@]1(C(N)=O)COc2c1cc([C@@](O)(CNC(=O)c1ccc(OC3CC3)c(F)c1)C(F)(F)F)nc2-c1ccc(F)cc1` [Example 72], for which the negative logarithm of the EC50 (pEC50) was over 6.70.
In the case of `COc1cc(C(=O)NC[C@](O)(c2cc3c(c(-c4ccc(F)cc4)n2)OC[C@]3(C)C(=O)NCC2(C)CC2)C(F)(F)F)cc2cccnc12` [Example 76] it was over 6.70; in that of `C[C@]1(C(N)=O)COc2c1cc([C@@](O)(CNC(=O)c1ccc(OC3CC3)c(-c3ccccc3)c1)C(F)(F)F)nc2-c1ccc(F)cc1` [Example 77], over 6.70; in that of `C[C@]1(C(N)=O)COc2c1cc([C@@](O)(CNC(=O)c1ccc(OC3CC3)c(-c3cncnc3)c1)C(F)(F)F)nc2-c1ccc(F)cc1` [Example 78], over 6.70.
Under `Cc1ncccc1-c1cc(C(=O)NC[C@](O)(c2cc3c(c(-c4ccc(F)cc4)n2)OC[C@]3(C)C(N)=O)C(F)(F)F)ccc1OC1CC1` [Example 97] stands under 6.70.

The values are drawn from US11505558B1, “Antiviral heterocyclic compounds” (Enanta Pharmaceuticals, Inc., priority 2019, dated 2022).
